# In US20230085307A1, “PYRIDAZINONE COMPOUND AND HERBICIDE” (NISSAN CHEMICAL CORPORATION, priority 2019, published 2023):
# Assays:
# velvetleaf [1] = assay: Test Example 5: herbicidal effect by foliage application, plastic box (Table 20, symbol M); format: in vivo, velvetleaf (Abutilon theophrasti)
# Outline: (§1)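 Plants sown in sterilized diluvial soil and grown 14 days in a greenhouse at 25° C to 30° C, then sprayed on the foliage with the compound's emulsion diluted in water to a predetermined herbicide amount. Injury to weeds and crops scored three weeks after application on a visual rating scale.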
# Italian ryegrass [2] = assay: Test Example 4: herbicidal effect by soil treatment (Table 19, symbol K); format: in vivo, Italian ryegrass (Lolium multiflorum); details: amount of applied herbicide 320 g/ha
# Outline: (§2)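 Three weeks of greenhouse growth at 25° C. to 30° C. followed a uniform surface spray of water-diluted emulsion at a predetermined herbicide amount. Seeds had been sown beforehand under about 1.5 cm of sterilized diluvial soil. Grading followed criteria set out in an earlier test.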
# lambsquarters [3] = assay: Test Example 4: herbicidal effect by soil treatment (Table 19, symbol O); format: in vivo, lambsquarters (Chenopodium album); details: amount of applied herbicide 320 g/ha
# Outline: as §2
# Japanese bulrush = assay: Test Example 1: herbicidal activity, application before weed generation under submerged conditions (Table 16, symbol B); format: in vivo, Japanese bulrush (Schoenoplectus juncoides); details: amount of applied herbicide 320 g/ha
# Outline: (§3)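 Submerged Wagner pots (alluvial soil, 4 cm water) sown with weed seeds and planted with 2.5-leaf rice seedlings; emulsifiable concentrate diluted in water applied to water surface on sowing day. Held in greenhouse at 25-30 °C; injury scored 0-5 by herbicidal rate after three weeks.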
# persian speedwell [4] = assay: Test Example 4: herbicidal effect by soil treatment (Table 19, symbol R); format: in vivo, Persian speedwell (Veronica persica); details: amount of applied herbicide 320 g/ha
# Outline: as §2
# oval-leafed pondweed = assay: Test Example 1: herbicidal activity, application before weed generation under submerged conditions (Table 16, symbol C); format: in vivo, oval-leafed pondweed (Monochoria vaginalis); details: amount of applied herbicide 320 g/ha
# Outline: as §3
# barnyard grass [5] = assay: Test Example 4: herbicidal effect by soil treatment (Table 19, symbol H); format: in vivo, barnyard grass (Echinochloa crus-galli); details: amount of applied herbicide 320 g/ha
# Outline: as §2
# Italian ryegrass [6] = assay: Test Example 5: herbicidal effect by foliage application, plastic box (Table 20, symbol K); format: in vivo, Italian ryegrass (Lolium multiflorum)
# Outline: as §1
# chickweed [7] = assay: Test Example 4: herbicidal effect by soil treatment (Table 19, symbol P); format: in vivo, common chickweed (Stellaria media); details: amount of applied herbicide 320 g/ha
# Outline: as §2
# windgrass [8] = assay: Test Example 4: herbicidal effect by soil treatment (Table 19, symbol L); format: in vivo, windgrass (Apera spica-venti); details: amount of applied herbicide 320 g/ha
# Outline: as §2
# redroot pigweed [9] = assay: Test Example 5: herbicidal effect by foliage application, plastic box (Table 20, symbol N); format: in vivo, redroot pigweed (Amaranthus retroflexus)
# Outline: as §1
# redroot pigweed [10] = assay: Test Example 4: herbicidal effect by soil treatment (Table 19, symbol N); format: in vivo, redroot pigweed (Amaranthus retroflexus); details: amount of applied herbicide 320 g/ha
# Outline: as §2
# green foxtail [11] = assay: Test Example 4: herbicidal effect by soil treatment (Table 19, symbol G); format: in vivo, green foxtail (Setaria viridis); details: amount of applied herbicide 320 g/ha
# Outline: as §2
# southern crabgrass [12] = assay: Test Example 4: herbicidal effect by soil treatment (Table 19, symbol F); format: in vivo, southern crabgrass (Digitaria ciliaris); details: amount of applied herbicide 320 g/ha
# Outline: as §2
# blackgrass [13] = assay: Test Example 4: herbicidal effect by soil treatment (Table 19, symbol J); format: in vivo, blackgrass (Alopecurus myosuroides); details: amount of applied herbicide 320 g/ha
# Outline: as §2
# rice flat sedge = assay: Test Example 3: herbicidal effect by foliage application, Wagner pot (Table 18, symbol E); format: in vivo, rice flat sedge (Cyperus iria); details: 320 g/ha
# Outline: (§4)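 Plants were sown in alluvial soil held under 0.1–0.5 cm standing water and grown 14 days in a greenhouse at 25–30 °C. An emulsifiable formulation, water-diluted to the set dose, was then sprayed onto the foliage, and effects were scored three weeks later using previously defined criteria.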
# lambsquarters [14] = assay: Test Example 5: herbicidal effect by foliage application, plastic box (Table 20, symbol O); format: in vivo, lambsquarters (Chenopodium album)
# Outline: as §1
# velvetleaf [15] = assay: Test Example 4: herbicidal effect by soil treatment (Table 19, symbol M); format: in vivo, velvetleaf (Abutilon theophrasti); details: amount of applied herbicide 320 g/ha
# Outline: as §2
# persian speedwell [16] = assay: Test Example 5: herbicidal effect by foliage application, plastic box (Table 20, symbol R); format: in vivo, Persian speedwell (Veronica persica)
# Outline: as §1
# windgrass [17] = assay: Test Example 5: herbicidal effect by foliage application, plastic box (Table 20, symbol L); format: in vivo, windgrass (Apera spica-venti)
# Outline: as §1
# late watergrass = assay: Test Example 1: herbicidal activity, application before weed generation under submerged conditions (Table 16, symbol A); format: in vivo, late watergrass (Echinochloa oryzicola); details: amount of applied herbicide 320 g/ha
# Outline: as §3
# barnyard grass [18] = assay: Test Example 5: herbicidal effect by foliage application, plastic box (Table 20, symbol H); format: in vivo, barnyard grass (Echinochloa crus-galli)
# Outline: as §1
# chickweed [19] = assay: Test Example 5: herbicidal effect by foliage application, plastic box (Table 20, symbol P); format: in vivo, common chickweed (Stellaria media)
# Outline: as §1
# blackgrass [20] = assay: Test Example 5: herbicidal effect by foliage application, plastic box (Table 20, symbol J); format: in vivo, blackgrass (Alopecurus myosuroides)
# Outline: as §1
# barnyard grass [21] = assay: Test Example 3: herbicidal effect by foliage application, Wagner pot (Table 18, symbol H); format: in vivo, barnyard grass (Echinochloa crus-galli); details: 320 g/ha
# Outline: as §4
# green foxtail [22] = assay: Test Example 5: herbicidal effect by foliage application, plastic box (Table 20, symbol G); format: in vivo, green foxtail (Setaria viridis)
# Outline: as §1
# southern crabgrass [23] = assay: Test Example 5: herbicidal effect by foliage application, plastic box (Table 20, symbol F); format: in vivo, southern crabgrass (Digitaria ciliaris)
# Outline: as §1
# wild oat [24] = assay: Test Example 5: herbicidal effect by foliage application, plastic box (Table 20, symbol I); format: in vivo, wild oat (Avena fatua)
# Outline: as §1
# Chinese sprangletop = assay: Test Example 3: herbicidal effect by foliage application, Wagner pot (Table 18, symbol D); format: in vivo, chinese sprangletop (Leptochloa chinensis); details: 320 g/ha
# Outline: as §4
# wild oat [25] = assay: Test Example 4: herbicidal effect by soil treatment (Table 19, symbol I); format: in vivo, wild oat (Avena fatua); details: amount of applied herbicide 320 g/ha
# Outline: as §2
# [26] = foliage application, 320 g/ha, three weeks after application
# [27] = amount of applied herbicide 320 g/ha, foliage application after 14-day growth, evaluated three weeks after application
compound,measurement,setting,value
Cc1nn(C)c(=O)c(-c2c(-c3ccc(OC(C)C)cc3)sc3cc(Cl)ccc23)c1O [3-041],"M: velvetleaf, herbicidal effect grade",velvetleaf [1]; [26],0 (Herbicidal rate of 5% or less (almost no effect))
same,"K: Italian ryegrass, herbicidal effect grade",Italian ryegrass [2],0 (Herbicidal rate of 5% or less (almost no effect))
same,"O: lambsquarters, herbicidal effect grade",lambsquarters [3],0 (Herbicidal rate of 5% or less (almost no effect))
same,"Herbicidal effect, B: Japanese bulrush",Japanese bulrush,0 (Herbicidal rate of 5% or less (almost no effect))
same,"R: persian speedwell, herbicidal effect grade",persian speedwell [4],2 (Herbicidal rate of 20% or more and less than 40%)
same,"Herbicidal effect, C: oval-leafed pondweed",oval-leafed pondweed,0 (Herbicidal rate of 5% or less (almost no effect))
same,"H: barnyard grass, herbicidal effect grade",barnyard grass [5],0 (Herbicidal rate of 5% or less (almost no effect))
same,"K: Italian ryegrass, herbicidal effect grade",Italian ryegrass [6]; [26],0 (Herbicidal rate of 5% or less (almost no effect))
same,"P: chickweed, herbicidal effect grade",chickweed [7],1 (Herbicidal rate of 5% or more and less than 20%)
same,"L: windgrass, herbicidal effect grade",windgrass [8],0 (Herbicidal rate of 5% or less (almost no effect))
same,"N: redroot pigweed, herbicidal effect grade",redroot pigweed [9]; [26],2 (Herbicidal rate of 20% or more and less than 40%)
same,"N: redroot pigweed, herbicidal effect grade",redroot pigweed [10],0 (Herbicidal rate of 5% or less (almost no effect))
same,"G: green foxtail, herbicidal effect grade",green foxtail [11],0 (Herbicidal rate of 5% or less (almost no effect))
same,"F: southern crabgrass, herbicidal effect grade",southern crabgrass [12],0 (Herbicidal rate of 5% or less (almost no effect))
same,"J: blackgrass, herbicidal effect grade",blackgrass [13],0 (Herbicidal rate of 5% or less (almost no effect))
same,herbicidal effect on rice flat sedge (E),rice flat sedge,1 (Herbicidal rate of 5% or more and less than 20%)
same,"O: lambsquarters, herbicidal effect grade",lambsquarters [14]; [26],1 (Herbicidal rate of 5% or more and less than 20%)
same,"M: velvetleaf, herbicidal effect grade",velvetleaf [15],0 (Herbicidal rate of 5% or less (almost no effect))
same,"R: persian speedwell, herbicidal effect grade",persian speedwell [16]; [26],5 (Herbicidal rate of 90% or more (almost completely withered))
same,"L: windgrass, herbicidal effect grade",windgrass [17]; [26],0 (Herbicidal rate of 5% or less (almost no effect))
same,"Herbicidal effect, A: late watergrass",late watergrass,2 (Herbicidal rate of 20% or more and less than 40%)
same,"H: barnyard grass, herbicidal effect grade",barnyard grass [18]; [26],0 (Herbicidal rate of 5% or less (almost no effect))
same,"P: chickweed, herbicidal effect grade",chickweed [19]; [26],3 (Herbicidal rate of 40% or more and less than 70%)
same,"J: blackgrass, herbicidal effect grade",blackgrass [20]; [26],0 (Herbicidal rate of 5% or less (almost no effect))
same,herbicidal effect on barnyard grass (H),barnyard grass [21],2 (Herbicidal rate of 20% or more and less than 40%)
same,"G: green foxtail, herbicidal effect grade",green foxtail [22]; [26],0 (Herbicidal rate of 5% or less (almost no effect))
same,"F: southern crabgrass, herbicidal effect grade",southern crabgrass [23]; [26],0 (Herbicidal rate of 5% or less (almost no effect))
same,"I: wild oat, herbicidal effect grade",wild oat [24]; [26],0 (Herbicidal rate of 5% or less (almost no effect))
same,herbicidal effect on Chinese sprangletop (D),Chinese sprangletop,0 (Herbicidal rate of 5% or less (almost no effect))
same,"I: wild oat, herbicidal effect grade",wild oat [25],0 (Herbicidal rate of 5% or less (almost no effect))
CSc1ccc(-c2sc3c(C)cccc3c2-c2c(O)c(C)nn(C)c2=O)cc1 [4-118],"Herbicidal effect by foliage application, M: velvetleaf",velvetleaf [1]; [27],5 (Herbicidal rate of 90% or more (almost completely withered))
same,"Herbicidal effect by soil treatment, K: Italian ryegrass",Italian ryegrass [2],5 (Herbicidal rate of 90% or more (almost completely withered))
same,"Herbicidal effect by soil treatment, O: lambsquarters",lambsquarters [3],5 (Herbicidal rate of 90% or more (almost completely withered))
same,"Herbicidal effect, B: Japanese bulrush",Japanese bulrush,2 (Herbicidal rate of 20% or more and less than 40%)
same,"Herbicidal effect by soil treatment, R: persian speedwell",persian speedwell [4],4 (Herbicidal rate of 70% or more and less than 90%)
same,"Herbicidal effect, C: oval-leafed pondweed",oval-leafed pondweed,2 (Herbicidal rate of 20% or more and less than 40%)
same,"Herbicidal effect by soil treatment, H: barnyard grass",barnyard grass [5],0 (Herbicidal rate of 5% or less (almost no effect))
same,"Herbicidal effect by foliage application, K: Italian ryegrass",Italian ryegrass [6]; [27],5 (Herbicidal rate of 90% or more (almost completely withered))
same,"Herbicidal effect by soil treatment, P: chickweed",chickweed [7],4 (Herbicidal rate of 70% or more and less than 90%)
same,"Herbicidal effect by soil treatment, L: windgrass",windgrass [8],0 (Herbicidal rate of 5% or less (almost no effect))
same,"Herbicidal effect by foliage application, N: redroot pigweed",redroot pigweed [9]; [27],5 (Herbicidal rate of 90% or more (almost completely withered))
same,"Herbicidal effect by soil treatment, N: redroot pigweed",redroot pigweed [10],5 (Herbicidal rate of 90% or more (almost completely withered))
same,"Herbicidal effect by soil treatment, G: green foxtail",green foxtail [11],0 (Herbicidal rate of 5% or less (almost no effect))
same,"Herbicidal effect by soil treatment, F: southern crabgrass",southern crabgrass [12],0 (Herbicidal rate of 5% or less (almost no effect))
same,"Herbicidal effect by soil treatment, J: blackgrass",blackgrass [13],0 (Herbicidal rate of 5% or less (almost no effect))
same,herbicidal effect on rice flat sedge (E),rice flat sedge,4 (Herbicidal rate of 70% or more and less than 90%)
same,"Herbicidal effect by foliage application, O: lambsquarters",lambsquarters [14]; [27],5 (Herbicidal rate of 90% or more (almost completely withered))
same,"Herbicidal effect by soil treatment, M: velvetleaf",velvetleaf [15],3 (Herbicidal rate of 40% or more and less than 70%)
same,"Herbicidal effect by foliage application, R: persian speedwell",persian speedwell [16]; [27],5 (Herbicidal rate of 90% or more (almost completely withered))
same,"Herbicidal effect by foliage application, L: windgrass",windgrass [17]; [27],5 (Herbicidal rate of 90% or more (almost completely withered))
same,"Herbicidal effect, A: late watergrass",late watergrass,3 (Herbicidal rate of 40% or more and less than 70%)
same,"Herbicidal effect by foliage application, H: barnyard grass",barnyard grass [18]; [27],3 (Herbicidal rate of 40% or more and less than 70%)
same,"Herbicidal effect by foliage application, P: chickweed",chickweed [19]; [27],5 (Herbicidal rate of 90% or more (almost completely withered))
same,"Herbicidal effect by foliage application, J: blackgrass",blackgrass [20]; [27],5 (Herbicidal rate of 90% or more (almost completely withered))
same,herbicidal effect on barnyard grass (H),barnyard grass [21],4 (Herbicidal rate of 70% or more and less than 90%)
same,"Herbicidal effect by foliage application, G: green foxtail",green foxtail [22]; [27],3 (Herbicidal rate of 40% or more and less than 70%)
same,"Herbicidal effect by foliage application, F: southern crabgrass",southern crabgrass [23]; [27],3 (Herbicidal rate of 40% or more and less than 70%)
same,"Herbicidal effect by foliage application, I: wild oat",wild oat [24]; [27],3 (Herbicidal rate of 40% or more and less than 70%)
same,herbicidal effect on Chinese sprangletop (D),Chinese sprangletop,3 (Herbicidal rate of 40% or more and less than 70%)
same,"Herbicidal effect by soil treatment, I: wild oat",wild oat [25],0 (Herbicidal rate of 5% or less (almost no effect))
